According to US20060100431A1, “Biologically active compounds” (Amura Therapeutics Limited, priority 2002, published 2006):

Experiments:
Assay type in all cases: biochemical
Wild-type cruzipain = Wild-type cruzipain (Trypanosoma cruzi, UniProt P25779); assay: Trypanosoma cruzi cruzipain peptidase activity assay (Ki); settings: read-out: Ki, inhibitors of cruzain and cruzipains
Procedure, shortened: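 Native cruzipain from T. cruzi Dm28 epimastigotes, 2.5 nM, in 100 mM sodium phosphate pH 6.75 with 1 mM EDTA and 10 mM L-cysteine, 25 °C, DMSO <1%. Rates taken from continuous fluorogenic substrate read; Ki by regression assuming reversible pure-competitive inhibition.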

human cathepsin L = target: T1, human cathepsin L (Homo sapiens, UniProt P07711); assay: Cathepsin L peptidase activity assay (Ki); settings: read-out: Ki, inhibitors of cathepsin L
T1 construct: purchased CN Biosciences
T1 sequence (P07711 114-333): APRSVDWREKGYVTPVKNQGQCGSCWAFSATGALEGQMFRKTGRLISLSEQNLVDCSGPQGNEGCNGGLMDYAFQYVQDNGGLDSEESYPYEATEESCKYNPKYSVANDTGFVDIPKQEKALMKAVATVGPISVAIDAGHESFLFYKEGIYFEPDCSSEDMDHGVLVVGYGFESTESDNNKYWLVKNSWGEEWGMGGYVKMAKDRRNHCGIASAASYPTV
Procedure, shortened: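 Run at 25±1° C with DMSO under 1%: buffer was 10 mM BTP pH 6.5 containing 1 mM EDTA, 1 mM CaCl2 and 5 mM 2-mercaptoethanol. Enzyme (1 nM cathepsin L) was added last to start hydrolysis of Ac-Phe-Arg-AMC held at KM^app (~20 μM), followed kinetically by fluorescence at 365/450 nm.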

Bovine cathepsin S = target: T2, Bovine cathepsin S (Bos taurus, UniProt P25326); assay: Cathepsin S peptidase activity assay, bovine enzyme (Ki); settings: species of cathepsin S not given; read-out: Ki, inhibitors of cathepsin S
T2 construct: purchased CN Biosciences
T2 sequence (P25326 115-331): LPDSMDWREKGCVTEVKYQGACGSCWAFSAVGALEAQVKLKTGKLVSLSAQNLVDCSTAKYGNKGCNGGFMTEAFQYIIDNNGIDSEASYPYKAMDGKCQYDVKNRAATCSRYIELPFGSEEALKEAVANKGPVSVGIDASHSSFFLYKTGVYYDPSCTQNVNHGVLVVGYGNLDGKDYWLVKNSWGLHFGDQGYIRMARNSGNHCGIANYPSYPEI
Procedure: Unless otherwise stated, all general chemicals and biochemicals were purchased from either the Sigma Chemical Company, Poole, Dorset, U.K or from Fisher Scientific UK, Loughborough, Leicestershire, U.K. Absorbance assays were carried out in flat-bottomed 96-well plates (Spectra; Greiner Bio-One Ltd., Stonehouse, Gloucestershire, U.K.) using a SpectraMax PLUS384 plate reader (Molecular Devices, Crawley, U.K.). Fluorescence high throughput assays were carried out in either 384-well microtitre plates (Corning Costar 3705 plates, Fisher Scientific) or 96-well ‘U’ bottomed Microfluor W1 microtitre plates (Thermo Labsystems, Ashford, Middlesex, U.K.). Fluorescence assays were monitored using a SpectraMax Gemini fluorescence plate reader (Molecular Devices). For substrates employing either a 7-amino-4-methylcoumarin (AMC) or a 7-amino-4-trifluoromethylcoumarin (AFC) fluorophore, assays were monitored at an excitation wavelength of 365 nm and an emission wavelength of 450 nm and the fluorescence plate reader calibrated with AMC. For substrates employing a 3-amino-benzoyl (Abz) fluorophore, assays were monitored at an excitation wavelength of 310 nm and an emission wavelength of 445 nm; the fluorescence plate reader calibrated with 3-amino-benzamide (Fluka). Unless otherwise indicated, all the peptidase substrates were purchased from Bachem UK, St Helens, Merseyside, UK. Substrates utilizing fluorescence resonance energy transfer methodology (i.e. FRET-based substrates) were synthesized at Incenta Limited using published methods (Atherton & Sheppard, Solid Phase Peptide Synthesis, IRL Press, Oxford, U.K, 1989) and employed Abz (2-aminobenzoyl) as the fluorescence donor and 3-nitro-tyrosine [Tyr(NO2)] as the fluorescence quencher (Meldal, M. and Breddam, K., Anal. Biochem, 195, 141-147, 1991). Hydroxyethylpiperazine ethanesulfonate (HEPES), tris-hydroxylmethyl aminomethane (tris) base, bis-tris-propane and all the biological detergents (e.g. CHAPS, zwittergents, etc.) were purchased from CN Biosciences UK, Beeston, Nottinghamshire, U.K. Glycerol was purchased from Amersham Pharmacia Biotech, Little Chalfont, Buckinghamshire, U.K. Stock solutions of substrate or inhibitor were made up to 10 mM in 100% dimethylsulfoxide (DMSO) (Rathburns, Glasgow, U.K.) and diluted as appropriately required. In all cases the DMSO concentration in the assays was maintained at less than 1% (vol./vol.).
Assay protocols were based on literature precedent (Table 4; Barrett, A. J., Rawlings, N. D. and Woessner, J. F., 1998, Handbook of Proteolytic Enzymes, Academic Press, London and references therein) and modified as required to suit local assay protocols. Enzyme was added as required to initiate the reaction and the activity, as judged by the change in fluorescence upon conversion of substrate to product, was monitored over time. All assays were carried out at 25±1° C.
Bovine cathepsin S, human cathepsin L, human cathepsin H and human cathepsin B were obtained from CN Biosciences. Recombinant human cathepsin S, human cathepsin K and human cathepsin X were obtained from Dr. Boris Turk (Josef Stefan Institute, Ljubljana, Slovenia). Unless otherwise stated, all peptidase activity assays were carried out in 10 mM bis-tris-propane (BTP), pH 6.5 containing 1 mM EDTA, 5 mM 2-mercaptoethanol and 1 mM CaCl2. Human cathepsin H activity assays were carried out in 10 mM BTP pH 6.5, 142 mM NaCl2, 1 mM CaCl2, 1 mM EDTA, 1 mM DTT, 0.035 mM Zwittergent 3-16. Human cathepsin K assays were carried out in 100 mM sodium acetate; pH 5.5 containing 20 mM L-cysteine and 1 mM EDTA (Bossard, M. J., et. al., J. Biol. Chem., 21, 12517-12524, 1996). Human cathepsin X assays were carried out in 100 mM sodium acetate; pH 5.5 containing 20 mM L-cysteine; 0.05% (w/v) Brij 35 and 1 mM EDTA (Santamaria, I., et. al., J. Biol. Chem., 273, 16816-16823, 1998; Klemencic, J, et al., Eur. J. Biochem., 267, 5404-5412, 2000).

CPB2.8ΔCTE = target: T3, CPB2.8ΔCTE (Leishmania mexicana, UniProt P36400); assay: Leishmania mexicana cysteine protease B (CPB) peptidase activity assay (Ki); settings: Ki, inhibitors of Leismania mexicana CPB protease
T3 construct: Wild-type recombinant CPB without the C-terminal extention (i.e. CPB2.8ΔCTE); Dr. Jeremy Mottram (Wellcome Centre for Molecular Parasitology, University of Glasgow)
T3 sequence (P36400 126-343, stated change not applied): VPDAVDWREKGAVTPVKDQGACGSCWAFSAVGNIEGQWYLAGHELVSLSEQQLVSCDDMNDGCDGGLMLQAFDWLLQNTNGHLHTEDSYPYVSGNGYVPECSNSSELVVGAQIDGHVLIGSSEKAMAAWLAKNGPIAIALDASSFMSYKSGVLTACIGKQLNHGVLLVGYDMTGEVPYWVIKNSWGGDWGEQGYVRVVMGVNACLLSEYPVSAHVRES
Procedure, shortened: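 Apparent Ki was derived by regression of activity against inhibitor concentration, assuming pure-competitive reversible binding. Reaction: 0.25 nM CPB lacking the C-terminal extension, pH 5.5 acetate buffer (1 mM EDTA, 200 mM NaCl, 10 mM DTT), 25 °C, followed by continuous substrate fluorescence.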

human cathepsin B = target: T4, human cathepsin B (Homo sapiens, UniProt P07858); assay: Cathepsin B peptidase activity assay (Ki); settings: read-out: Ki, inhibitors of cathepsin B
T4 construct: purchased CN Biosciences
Procedure, shortened: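 Buffer: 10 mM bis-tris-propane pH 6.5, 1 mM EDTA, 5 mM 2-mercaptoethanol, 1 mM CaCl2; DMSO <1%. Ki assumed reversible, pure-competitive, from Ki^app=Ki(1+[So]/KM^app) by non-linear regression.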

Measured: Ki

Wild-type cruzipain, sequence (P25779 whole entry): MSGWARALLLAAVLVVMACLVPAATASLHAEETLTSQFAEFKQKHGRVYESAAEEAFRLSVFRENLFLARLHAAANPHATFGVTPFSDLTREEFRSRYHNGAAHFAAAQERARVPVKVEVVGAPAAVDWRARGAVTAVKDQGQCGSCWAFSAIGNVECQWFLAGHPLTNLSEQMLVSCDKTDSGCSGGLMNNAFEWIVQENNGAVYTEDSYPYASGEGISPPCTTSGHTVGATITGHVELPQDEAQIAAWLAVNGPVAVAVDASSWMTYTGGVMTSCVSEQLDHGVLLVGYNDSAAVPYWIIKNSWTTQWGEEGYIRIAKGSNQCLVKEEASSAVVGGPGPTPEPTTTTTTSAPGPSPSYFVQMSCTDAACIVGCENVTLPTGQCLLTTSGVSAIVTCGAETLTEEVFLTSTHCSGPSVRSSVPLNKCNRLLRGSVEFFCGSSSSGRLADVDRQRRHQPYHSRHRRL

CC(C)C[C@H](NC(=O)c1ccc(N(C)C)cc1)C(=O)N1CC[C@@H]2[C@H]1C(=O)CN2C(=O)c1ccc2[nH]ccc2c1 [Example 98, (3aR,6aS)-4-Dimethylamino-N-{(1S)-1-[4-(1H-indole-5-carbonyl)-6-oxo-hexahydro-pyrrolo[3,2-b]pyrrole-1-carbonyl]-3-methyl-butyl}-benzamide]
not listed: human cathepsin B
< 5 µM: all other assays above

CC(C)C[C@H](NC(=O)c1ccc(N)cc1)C(=O)N1CC[C@@H]2[C@H]1C(=O)CN2C(=O)c1cccc(S(C)(=O)=O)c1 [Example 61, (3aR,6aS)-4-Amino-N-{(1S)-1-[4-(3-methanesulfonyl-benzoyl)-6-oxo-hexahydro-pyrrolo[3,2-b]pyrrole-1-carbonyl]-3-methyl-butyl}-benzamide]
< 5 µM: Wild-type cruzipain | Bovine cathepsin S | human cathepsin B

CC(C)C[C@H](NC(=O)c1cccc(CN)c1)C(=O)N1CC[C@@H]2[C@H]1C(=O)CN2C(=O)c1ccccc1S(C)(=O)=O [Example 185, (3aR,6aS)-3-Aminomethyl-N-{(1S)-1-[4-(2-methanesulfonyl-benzoyl)-6-oxo-hexahydro-pyrrolo[3,2-b]pyrrole-1-carbonyl]-3-methyl-butyl}-benzamide]
not listed: human cathepsin B
< 5 µM: all other assays above

CC(C)C[C@H](NC(=O)c1ccccc1)C(=O)N1CC[C@@H]2[C@H]1C(=O)CN2C(=O)c1ccccc1 [Example 174, (3aR,6aS)-N-[(1S)-1-(4-Benzoyl-6-oxo-hexahydro-pyrrolo[3,2-b]pyrrole-1-carbonyl)-3-methyl-butyl]-benzamide]
not listed: human cathepsin B
< 5 µM: all other assays above

CCC[C@H](NC(C)=O)C(=O)N1CC(=O)[C@@H]2[C@H]1CCN2C(=O)[C@H](CC(C)C)NC(=O)c1ccc(N(C)C)cc1 [Example 245, (3aR,6aS)-N-{(1S)-1-[4-((2S)-2-Acetylamino-pentanoyl)-6-oxo-hexahydro-pyrrolo[3,2-b]pyrrole-1-carbonyl]-3-methyl-butyl}-4-dimethylamino-benzamide]
not listed: human cathepsin B
< 5 µM: all other assays above

Nc1ccc(C(=O)N2CC(=O)[C@@H]3[C@H]2CCN3C(=O)[C@H](Cc2ccc(O)cc2)NC(=O)c2cccc(Br)c2)cc1 [Example 310, (3aR,6aS)-N-[(1S)-2-[4-(4-Amino-benzoyl)-6-oxo-hexahydro-pyrrolo[3,2-b]pyrrole-1-yl]-1-(4-hydroxy-benzyl)-2-oxo-ethyl]-3-bromo-benzamide]
< 5 µM: Bovine cathepsin S | human cathepsin B

CC(C)C[C@H](NC(=O)c1ccc(N(C)C)cc1)C(=O)N1CC[C@@H]2[C@H]1C(=O)CN2C(=O)c1ccsc1 [Example 164, (3aR,6aS)-4-Dimethylamino-N-{(1S)-3-methyl-1-[6-oxo-4-(thiophene-3-carbonyl)-hexahydro-pyrrolo[3,2-b]pyrrole-1-carbonyl]-butyl}-benzamide]
not listed: human cathepsin B
< 5 µM: all other assays above

CC(C)C[C@H](NC(=O)c1ccc2[nH]ccc2c1)C(=O)N1CC[C@@H]2[C@H]1C(=O)CN2C(=O)c1ccccc1 [Example 89, (3aR,6aS)-1H-Indole-5-carboxylic acid [(1S)-1-(4-benzoyl-6-oxo-hexahydro-pyrrolo[3,2-b]pyrrole-1-carbonyl)-3-methyl-butyl]-amide]
not listed: human cathepsin B
< 5 µM: all other assays above

CC(C)C[C@H](NC(=O)c1ccc(C(C)C)cc1)C(=O)N1CC[C@@H]2[C@H]1C(=O)CN2C(=O)c1ccccc1 [Example 172, (3aR,6aS)-N-[(1S)-1-(4-Benzoyl-6-oxo-hexahydro-pyrrolo[3,2-b]pyrrole-1-carbonyl)-3-methyl-butyl]-4-isopropyl-benzamide]
not listed: human cathepsin B
< 5 µM: all other assays above

CC(C)C[C@H](NC(=O)c1ccc(N2CCCC2)cc1)C(=O)N1CC[C@@H]2[C@H]1C(=O)CN2C(=O)c1ccccc1 [Example 193, (3aR,6aS)-N-[(1S)-1-(4-Benzoyl-6-oxo-hexahydro-pyrrolo[3,2-b]pyrrole-1-carbonyl)-3-methyl-butyl]-4-pyrrolidin-1-yl-benzamide]
not listed: human cathepsin B
< 5 µM: all other assays above

CC(C)C[C@H](NC(=O)c1ccc2ncccc2c1)C(=O)N1CC[C@@H]2[C@H]1C(=O)CN2C(=O)c1ccccc1 [Example 86, (3aR,6aS)-Quinoline-6-carboxylic acid [(1S)-1-(4-benzoyl-6-oxo-hexahydro-pyrrolo[3,2-b]pyrrole-1-carbonyl)-3-methyl-butyl]-amide]
not listed: human cathepsin B
< 5 µM: all other assays above

CC(C)C[C@H](NC(=O)c1ccc2cc[nH]c2c1)C(=O)N1CC[C@@H]2[C@H]1C(=O)CN2C(=O)c1ccccc1 [Example 88, (3aR,6aS)-1H-Indole-6-carboxylic acid [(1S)-1-(4-benzoyl-6-oxo-hexahydro-pyrrolo[3,2-b]pyrrole-1-carbonyl)-3-methyl-butyl]-amide]
not listed: human cathepsin B
< 5 µM: all other assays above

CC[C@H](C)[C@H](NC(=O)OCc1ccccc1)C(=O)N1CC(=O)[C@@H]2[C@H]1CCN2C(=O)[C@H](CC(C)C)NC(=O)c1ccc(N(C)C)cc1 [Example 161, (3 aS,6aR)-((1S,2S)-1-{4-[(2S)-2-(4-Dimethylamino-benzoylamino)-4-methyl-pentanoyl]-3-oxo-hexahydro-pyrrolo[3,2-b]pyrrole-1-carbonyl}-2-methyl-butyl)-carbamic acid benzyl ester]
not listed: human cathepsin B
< 5 µM: all other assays above

Cc1ccc(C(=O)N[C@@H](CC(C)C)C(=O)N2CC[C@@H]3[C@H]2C(=O)CN3C(=O)c2ccccc2)cc1 [Example 170]
not listed: human cathepsin B
< 5 µM: all other assays above
